A word on the Ki: it is the dissociation constant of the complex between target and ligand, obtained from inhibition or displacement. Lower therefore signals a stronger hold on the target.

This assay deals with T1, human full-length glucocorticoid receptor (Homo sapiens, UniProt P04150).
T1 construct: recombinantly expressed human full-length glucocorticoid receptor; purchased PanVera Co., Madison, Wis; P2816
T1 sequence (P04150 1-777): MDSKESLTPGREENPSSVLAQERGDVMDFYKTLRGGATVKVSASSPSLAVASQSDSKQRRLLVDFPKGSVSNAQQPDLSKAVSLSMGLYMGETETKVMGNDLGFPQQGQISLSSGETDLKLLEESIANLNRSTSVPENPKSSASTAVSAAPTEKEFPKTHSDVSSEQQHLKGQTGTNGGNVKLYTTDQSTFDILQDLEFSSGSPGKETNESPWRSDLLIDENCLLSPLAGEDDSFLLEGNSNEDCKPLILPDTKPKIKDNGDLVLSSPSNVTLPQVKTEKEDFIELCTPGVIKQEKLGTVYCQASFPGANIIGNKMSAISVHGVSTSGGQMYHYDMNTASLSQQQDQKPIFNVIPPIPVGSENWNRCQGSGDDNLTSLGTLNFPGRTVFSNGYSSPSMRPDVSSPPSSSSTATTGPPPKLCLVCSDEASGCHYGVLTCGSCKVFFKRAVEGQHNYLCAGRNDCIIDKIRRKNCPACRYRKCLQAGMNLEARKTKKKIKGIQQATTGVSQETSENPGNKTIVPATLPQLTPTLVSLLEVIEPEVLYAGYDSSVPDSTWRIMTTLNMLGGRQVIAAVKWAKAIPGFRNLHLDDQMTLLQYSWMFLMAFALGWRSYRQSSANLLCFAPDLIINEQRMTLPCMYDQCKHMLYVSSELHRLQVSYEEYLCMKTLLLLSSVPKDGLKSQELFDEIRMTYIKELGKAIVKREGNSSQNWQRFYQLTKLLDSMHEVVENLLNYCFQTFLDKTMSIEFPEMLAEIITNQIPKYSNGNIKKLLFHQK
Kind of assay: Glucocorticoid Receptor Binding Assay (II), fluorescence polarization competitor kit (Fluormone GS1). The following applies: GR Binding Assay (II). In a few lines:
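Cell lysate with recombinant receptor incubated with 1 nM Fluormone GS1 tracer, with or without test compound, for one hour at room temperature. Binding read as displacement by fluorescence polarization.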
Regarding `CC(C)(C(=O)Nc1ccccn1)[C@@H](c1ccccc1)c1ccc(O)cc1` [Example 341, (3S)-3-(4-hydroxyphenyl)-2,2-dimethyl-3-phenyl-N-2-pyridinylpropanamide], the Ki worked out at 175 nM.
The molecule `COc1ccc(C(c2ccccc2)C(C)(C)C(=O)Nc2nccs2)cc1F` (stereo not shown) [Example 282, 3-(3-fluoro-4-(methyloxy)phenyl)-2,2-dimethyl-3-phenyl-N-1,3-thiazol-2-ylpropanamide] had a Ki of 29.5 nM.
The figure for `CC(C)(C)OC(=O)Nc1ccc(C(c2ccccc2)C(C)(C)C(=O)Nc2nncs2)cc1` (stereo not shown) [Example 248, 1,1-dimethylethyl (4-(2,2-dimethyl-3-oxo-1-phenyl-3-(1,3,4-thiadiazol-2-ylamino)propyl)phenyl)carbamate] is 306 nM; for `CC(C)(C(=O)Nc1nccs1)C(c1ccccc1)c1ccc(N2CCNCC2)cc1` (stereo not shown) [Example 250, 2,2-Dimethyl-3-phenyl-3-(4-(1-piperazinyl)phenyl)-N-1,3-thiazol-2-ylpropanamide] it is 348 nM.
Under `COc1ccc([C@@H](c2ccccc2)C(C)(C)C(=O)NC2CCC2)cc1` [Example 272, (3R)-N-cyclobutyl-2,2-dimethyl-3-(4-(methyloxy)phenyl)-3-phenylpropanamide] stands 1160 nM.
Under `CC(C)(C(=O)Nc1nncs1)C(c1ccc(F)cc1)c1ccc(N2CCOCC2)cc1` (stereo not shown) [Example 231, 3-(4-fluorophenyl)-2,2-dimethyl-3-(4-(4-morpholinyl)phenyl)-N-1,3,4-thiadiazol-2-ylpropanamide] stands 18.2 nM.
In turn, `CC(C)(C(=O)Nc1nccs1)C(C)(c1ccccc1)c1ccccc1` [Example 316, 2,2-dimethyl-3,3-diphenyl-N-1,3-thiazol-2-ylbutanamide] came in with a Ki of 472 nM.
The figure for `CC(=O)c1cccc(C(c2ccccc2)C(C)(C)C(=O)Nc2nccs2)c1` (stereo not shown) [Example 370, 3-(3-acetylphenyl)-2,2-dimethyl-3-phenyl-N-1,3-thiazol-2-ylpropanamide] is 60.9 nM; for `CC(C)(C(=O)Nc1nccs1)C(c1ccc(Cl)cc1)c1ccc(N2CCOCC2)cc1` (stereo not shown) [Example 232, 3-(4-chlorophenyl)-2,2-dimethyl-3-(4-(4-morpholinyl)phenyl)-N-1,3-thiazol-2-ylpropanamide] it is 14.5 nM; for `COc1ccc([C@@H](c2ccccc2)C(C)(C)C(=O)Nc2ncc(C)s2)cc1` [Example 268, (3R)-2,2-dimethyl-3-(4-(methyloxy)phenyl)-N-(5-mehtyl-1,3-thiazol-2-yl)-3-phenylpropanamide] it is 302 nM.
The figure for `COc1ccc(C(c2ccccc2)C(C)(C)C(=O)Nc2nccs2)cc1F` (stereo not shown) [Example 281, 3-(3-fluoro-4-(methyloxy)phenyl)-2,2-dimethyl-3-phenyl-N-1,3-thiazol-2-ylpropanamide] is 15.5 nM; for `CC(C)(C(=O)Nc1nncs1)C(c1ccc(Cl)cc1)c1ccc(N2CCOCC2)cc1` (stereo not shown) [Example 233, 3-(4-chlorophenyl)-2,2-dimethyl-3-(4-(4-morpholinyl)phenyl)-N-1,3,4-thiadiazol-2-ylpropanamide] it is 13.2 nM; for `CC(C)(C(=O)Nc1nncs1)C(c1ccccc1)c1ccc(N2CCNCC2)cc1` (stereo not shown) [Example 251, 2,2-dimethyl-3-phenyl-3-(4-(1-piperazinyl)phenyl)-N-1,3,4-thiadiazol-2-ylpropanamide] it is 636 nM.
The figure for `COc1ccc(C(c2ccccc2)C(C)(C)C(=O)Nc2nccs2)c(F)c1` (stereo not shown) [Example 279, 3-(2-fluoro-4-(methyloxy)phenyl)-2,2-dimethyl-3-phenyl-N-1,3-thiazol-2-ylpropanamide] is 74.7 nM; for `CC(C)(C(=O)Nc1nncs1)C(c1ccccc1)c1ccc(O)cc1F` (stereo not shown) [Example 344, 3-(2-fluoro-4-hydroxyphenyl)-2,2-dimethyl-3-phenyl-N-1,3,4-thiadiazol-2-ylpropanamide] it is 43.2 nM.
As to `CC(O)c1ccc(C(c2ccccc2)C(C)(C)C(=O)Nc2nccs2)cc1` (stereo not shown) [Example 371, 3-(4-(1-Hydroxyethyl)phenyl)-2,2-dimethyl-3-phenyl-N-1,3-thiazol-2-ylpropanamide], the Ki was 38.1 nM. This Ki and that of the molecule before are within 1.5-fold of each other.
The figure for `CC(C)(C(=O)Nc1nncs1)C(c1ccccc1)c1ccc(N2CCCC2)cc1` (stereo not shown) [Example 237, 2,2-dimethyl-3-phenyl-3-(4-(1-pyrrolidinyl)phenyl)-N-1,3,4-thiadiazol-2-ylpropanamide] is 13.6 nM; for `CC(C)(C(=O)Nc1nccs1)C(c1ccccc1)c1ccc(F)cc1` (stereo not shown) [Example 309, 3-(4-fluorophenyl)-2,2-dimethyl-3-phenyl-N-1,3-thiazol-2-ylpropanamide] it is 76.4 nM; for `COc1ccc([C@H](c2ccccc2)C(C)(C)C(=O)NC2CCC2)cc1` [Example 271, (3S)-N-cyclobutyl-2,2-dimethyl-3-(4-(methyloxy)phenyl)-3-phenylpropanamide] it is 770 nM.
Molecule `CC(C)(C(=O)Nc1nccs1)C(c1ccccc1)c1ccc(O)c(F)c1` (stereo not shown) [Example 346, 3-(3-fluoro-4-hydroxyphenyl)-2,2-dimethyl-3-phenyl-N-1,3-thiazol-2-ylpropanamide] registered a Ki of 16 nM. Compared with the last molecule, the Ki is about 48-fold lower.
The figure for `CC(C)(C(=O)NC1CCC1)[C@@H](c1ccccc1)c1ccc(O)cc1` [Example 333, (3S)-N-cyclobutyl-3-(4-hydroxyphenyl)-2,2-dimethyl-3-phenylpropanamide] is 392 nM; for `CCOC(=O)c1csc(NC(=O)C(C)(C)[C@@H](c2ccccc2)c2ccc(O)cc2)n1` [Example 338, ethyl 2-(((3S)-3-(4-hydroxyphenyl)-2,2-dimethyl-3-phenylpropanoyl)amino)-1,3-thiazole-4-carboxylate] it is 11.8 nM; for `CC(C)(C(=O)Nc1nccs1)C(c1ccccc1)c1ccc(F)cc1` (stereo not shown) [Example 307, 3-(4-fluorophenyl)-2,2-dimethyl-3-phenyl-N-1,3-thiazol-2-ylpropanamide] it is 15.5 nM.
Consider `COc1ccc(C(c2ccccc2)C(C)(C)C(=O)Nc2nccs2)cc1F` (stereo not shown) [Example 283, 3-(3-fluoro-4-(methyloxy)phenyl)-2,2-dimethyl-3-phenyl-N-1,3-thiazol-2-ylpropanamide], for which affinity was put at a Ki of 9.2 nM. This Ki lies about 1.7-fold lower than the previous one.
The figure for `Cc1csc(NC(=O)C(C)(C)[C@@H](c2ccccc2)c2ccc(O)cc2)n1` [Example 329, (3S)-3-(4-hydroxyphenyl)-2,2-dimethyl-N-(4-methyl-1,3-thiazol-2-yl)-3-phenylpropanamide] is 16.8 nM.
`CC(C)(C(=O)Nc1nccs1)[C@H](c1ccccc1)c1ccc(OC(=O)C2CCCO2)cc1` (stereo partly drawn) [Example 367, 4-((1R)-2,2-dimethyl-3-oxo-1-phenyl-3-(1,3-thiazol-2-ylamino)propyl)phenyl tetrahydro-2-furancarboxylate] returned a Ki of 26.9 nM.
The figure for `CC(C)(C(=O)Nc1nccs1)C(c1ccccc1)c1ccc(Nc2ccc(F)cc2)cc1` (stereo not shown) [Example 243, 3-(4-((4-fluorophenyl)amino)phenyl)-2,2-dimethyl-3-phenyl-N-1,3-thiazol-2-ylpropanamide] is 29.1 nM.
Under `CC(C)(C(=O)Nc1nncs1)C(c1ccccc1)c1cccc(N2CCOCC2)c1` (stereo not shown) [Example 245, 2,2-dimethyl-3-(3-(4-morpholinyl)phenyl)-3-phenyl-N-1,3,4-thiadiazol-2-ylpropanamide] stands 2310 nM; under `CC(C)(C(=O)Nc1nccs1)C(c1ccccc1)c1ccc(-c2ccncc2)cc1` (stereo not shown) [Example 375, 2,2-dimethyl-3-phenyl-3-(4-(4-pyridinyl)phenyl)-N-1,3-thiazol-2-ylpropanamide], 11 nM; under `CC(C)(C(=O)Nc1nccs1)[C@H](c1ccccc1)c1cccc(O)c1` [Example 328, 3-(3-hydroxyphenyl)-2,2-dimethyl-3-phenyl-N-1,3-thiazol-2-ylpropanamide], 17.8 nM.
The figure for `CC(C)(C(=O)Nc1nncs1)C(c1ccccc1)c1ccc(Br)c(F)c1` (stereo not shown) [Example 315, 3-(4-bromo-3-fluorophenyl)-2,2-dimethyl-3-phenyl-N-1,3,4-thiadiazol-2-ylpropanamide] is 10.9 nM; for `CC(C)(C(=O)NC1CCC1)[C@H](c1ccccc1)c1ccc(O)cc1` [Example 334, (3R)-N-cyclobutyl-3-(4-hydroxyphenyl)-2,2-dimethyl-3-phenylpropanamide] it is 395 nM; for `COc1ccc([C@@H](c2ccccc2)C(C)(C)C(=O)NC2CCCC2)cc1` [Example 274, (3R)-N-cyclopentyl-2,2-dimethyl-3-(4-(methyloxy)phenyl)-3-phenylpropanamide] it is 1530 nM.
Take `COc1ccc([C@@H](c2ccccc2)C(C)(C)C(=O)Nc2nccs2)cc1C#N` [Example 296, (3R)-3-(3-Cyano-4-(methyloxy)phenyl)-2,2-dimethyl-3-phenyl-N-1,3-thiazol-2-ylpropanamide]: the affinity corresponds to a Ki of 45.7 nM. This Ki is about 33-fold lower than that of the molecule before.

(Values after patent US7968577B2 (Bristol-Myers Squibb Company, priority 2006, dated 2011).)
